# Data from PubChem BioAssay (NCI).
#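 48-hour exposure; five concentrations; linearly interpolated endpoints. The concentration for 50% growth inhibition is given as GI50. TGI marks complete inhibition of growth.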
# Key:
# Assay in all cases: NCI tumour cell line growth inhibition, 48 h
# [1] = system: MCF7 breast
# [2] = system: SK-OV-3 ovarian
# [3] = system: IGROV1 ovarian
# [4] = system: SF-539 CNS
# [5] = system: U251 CNS
# [6] = system: HOP-92 NSCLC
# [7] = system: SF-295 CNS
# [8] = system: HCC-2998 colon
# [9] = system: SNB-19 CNS
# [10] = system: KM12 colon
# [11] = system: K-562 leukemia
# [12] = system: NCI-H226 lung
# [13] = system: UACC-62 melanoma
# [14] = system: CAKI-1 renal
# [15] = system: 786-0 renal
# [16] = system: M14 melanoma
# [17] = system: NCI-H23 lung
# [18] = system: RXF 393 renal
# [19] = system: MDA-MB-435
# [20] = system: OVCAR-5 ovarian
# [21] = system: SN12C renal
# [22] = system: COLO 205 colon
# [23] = system: ACHN renal
# [24] = system: SK-MEL-28 melanoma
# [25] = system: PC-3 prostate
# [26] = system: NCI-H460 lung
# [27] = system: LOX IMVI melanoma
# [28] = system: SNB-75 CNS
# [29] = system: NCI/ADR-RES ovarian
# [30] = system: UO-31 renal
# [31] = system: HT29 colon
# [32] = system: A549 NSCLC
# [33] = system: SF-268 CNS
# [34] = system: SK-MEL-2 melanoma
# [35] = system: RPMI-8226 leukemia
# [36] = system: OVCAR-8 ovarian
# [37] = system: HCT-116 colon
# [38] = system: HOP-62 NSCLC
# [39] = system: SW-620 colon
# [40] = system: SK-MEL-5 melanoma
# [41] = system: MOLT-4 leukemia
# [42] = system: EKVX NSCLC
# [43] = system: MDA-MB-231 breast
# [44] = system: TK-10 renal
# [45] = system: OVCAR-4 ovarian
# [46] = system: HCT-15 colon
# [47] = system: BT-549 breast
# [48] = system: HS 578T breast
# [49] = system: DU-145 prostate
# [50] = system: T-47D breast
# [51] = system: NCI-H522 lung
# [52] = system: UACC-257 melanoma
# [53] = system: MALME-3M melanoma
# [54] = system: SR leukemia
# [55] = system: A498 renal
# [56] = system: OVCAR-3 ovarian
# [57] = system: CCRF-CEM leukemia
# [58] = system: HL-60(TB) leukemia
compound,measurement,setting,value
COc1cc2c3c(n(CCCN)c(=O)c2cc1OC)-c1ccc(N(C)C)cc1C3=O,GI50,[1],14.8 µM
same,TGI,[1],36.7 µM
same,GI50,[2],21 µM
same,TGI,[2],42.7 µM
same,GI50,[3],14.8 µM
same,TGI,[3],47 µM
same,GI50,[4],1.92 µM
same,TGI,[4],3.66 µM
same,GI50,[5],16.5 µM
same,TGI,[5],31.1 µM
same,GI50,[6],6.8 µM
same,TGI,[6],22.8 µM
same,GI50,[7],17.6 µM
same,TGI,[7],37.9 µM
same,GI50,[8],3.29 µM
same,TGI,[8],7.68 µM
same,GI50,[9],16.9 µM
same,TGI,[9],33.7 µM
same,GI50,[10],2.34 µM
same,TGI,[10],4.85 µM
same,GI50,[11],4.09 µM
same,TGI,[11],17.4 µM
same,GI50,[12],23.9 µM
same,TGI,[12],49.5 µM
same,GI50,[13],21.6 µM
same,TGI,[13],42.2 µM
same,GI50,[14],22.7 µM
same,TGI,[14],47.5 µM
same,GI50,[15],5.29 µM
same,TGI,[15],11.8 µM
same,GI50,[16],16.4 µM
same,TGI,[16],32.6 µM
same,GI50,[17],16.6 µM
same,TGI,[17],30.5 µM
same,GI50,[18],6.53 µM
same,TGI,[18],14.8 µM
same,GI50,[19],22.6 µM
same,TGI,[19],46.3 µM
same,GI50,[20],17 µM
same,TGI,[20],31.4 µM
same,GI50,[21],16.9 µM
same,TGI,[21],32 µM
same,GI50,[22],17.4 µM
same,TGI,[22],35.5 µM
same,GI50,[23],17.4 µM
same,TGI,[23],31.5 µM
same,GI50,[24],12.3 µM
same,TGI,[24],27.6 µM
same,GI50,[25],1.69 µM
same,TGI,[25],3.14 µM
same,GI50,[26],4.45 µM
same,TGI,[26],26.1 µM
same,GI50,[27],2.05 µM
same,TGI,[27],4.45 µM
same,GI50,[28],22.5 µM
same,TGI,[28],46 µM
same,GI50,[29],13.9 µM
same,TGI,[29],43.2 µM
same,GI50,[30],16.9 µM
same,TGI,[30],36.1 µM
same,GI50,[31],1.54 µM
same,TGI,[31],2.94 µM
same,GI50,[32],18 µM
same,TGI,[32],52 µM
same,GI50,[33],16.1 µM
same,TGI,[33],46.1 µM
same,GI50,[34],19.6 µM
same,TGI,[34],38.1 µM
same,GI50,[35],2 µM
same,TGI,[35],4.68 µM
same,GI50,[36],7.22 µM
same,TGI,[36],33.7 µM
same,GI50,[37],2.42 µM
same,TGI,[37],6.07 µM
same,GI50,[38],16.8 µM
same,TGI,[38],31.9 µM
same,GI50,[39],1.95 µM
same,TGI,[39],3.76 µM
same,GI50,[40],6.4 µM
same,TGI,[40],13.7 µM
same,GI50,[41],7.01 µM
same,TGI,[41],19.5 µM
same,GI50,[42],16.7 µM
same,TGI,[42],32 µM
same,GI50,[43],11.9 µM
same,TGI,[43],25.5 µM
same,GI50,[44],18.5 µM
same,TGI,[44],37.2 µM
same,GI50,[45],17.5 µM
same,TGI,[45],33.8 µM
same,GI50,[46],13.9 µM
same,TGI,[46],27.1 µM
same,GI50,[47],14.5 µM
same,TGI,[47],28.8 µM
same,GI50,[48],27.9 µM
same,TGI,[48],61.5 µM
same,GI50,[49],2.38 µM
same,TGI,[49],6.6 µM
same,GI50,[50],20 µM
same,TGI,[50],41 µM
same,GI50,[51],17.3 µM
same,TGI,[51],38.1 µM
same,GI50,[52],23.5 µM
same,TGI,[52],48.3 µM
same,GI50,[53],9.33 µM
same,TGI,[53],29.9 µM
same,GI50,[54],18.7 µM
same,TGI,[54],74.5 µM
same,GI50,[55],21 µM
same,TGI,[55],37.2 µM
same,GI50,[56],20.4 µM
same,TGI,[56],42.2 µM
same,GI50,[57],1.98 µM
same,TGI,[57],5.16 µM
same,GI50,[58],21.6 µM
same,TGI,[58],47.7 µM
